These molecules were tested against human APJ receptor (Homo sapiens (Human), UniProt P35414) (assay: Intracellular cAMP accumulation assay (APJ hcAMP, HTRF)). Details: human APJ, cAMP accumulation; read-out: Human APJ cAMP EC50 Potency range.
Type: cell-based
Procedure, shortened: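 HEK293 cells stably expressing human APJ, 5,000 per well, incubated 30 min at rt with compound, […] and 2 μM forskolin. cAMP measured by HTRF against a cAMP standard curve as inhibition of forskolin-driven production. EC50 from variable-slope sigmoidal fit.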

human APJ receptor, sequence (P35414 whole entry): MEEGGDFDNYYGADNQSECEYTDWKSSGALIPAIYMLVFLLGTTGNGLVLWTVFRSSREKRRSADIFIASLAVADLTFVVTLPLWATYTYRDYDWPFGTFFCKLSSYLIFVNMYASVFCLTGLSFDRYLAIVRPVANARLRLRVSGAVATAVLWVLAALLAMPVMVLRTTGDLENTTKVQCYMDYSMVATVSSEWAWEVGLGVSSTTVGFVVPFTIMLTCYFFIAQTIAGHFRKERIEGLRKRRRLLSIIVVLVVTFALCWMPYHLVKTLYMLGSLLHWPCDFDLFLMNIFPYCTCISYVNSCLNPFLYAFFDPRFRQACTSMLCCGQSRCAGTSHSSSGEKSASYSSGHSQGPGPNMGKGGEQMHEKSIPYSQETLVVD

| Compound | EC50 |
| --- | --- |
| CCCCc1nc(=O)c(S(=O)(=O)c2ccc(-c3cccnc3C)cc2)c(O)n1[C@@H](C)c1ccccc1OC [Example 231, 2-butyl-6-hydroxy-1-[(1S)-1-(2-methoxyphenyl)ethyl]-5-[4-(2-methylpyridin-3-yl)benzenesulfonyl]-1,4-dihydropyrimidin-4-one] | 0.01 to 10 nM |
| CCCCc1nc(=O)c(S(=O)(=O)c2ccc(-c3ccc(F)nc3C)cc2)c(O)n1[C@@H](C)c1ccc(OC)cc1 [Example 233, 2-butyl-5-[4-(6-fluoro-2-methylpyridin-3-yl)benzenesulfonyl]-6-hydroxy-1-[(1S)-1-(4-methoxyphenyl)ethyl]-1,4-dihydropyrimidin-4-one] | 0.01 to 10 nM |
| CCCCc1nc(O)c(S(=O)(=O)c2ccc(Br)cc2)c(=O)n1[C@H]1CCCc2ccccc21 [Example 235, 5-(4-bromobenzenesulfonyl)-2-butyl-6-hydroxy-3-[(1S)-1,2,3,4-tetrahydronaphthalen-1-yl]-3,4-dihydropyrimidin-4-one] | 10 to 100 nM |
| CCCCc1nc(=O)c(S(=O)(=O)c2ccc(-c3ccncc3C)cc2)c(O)n1[C@@H](C)c1ccc(OC)cc1 [Example 236, 2-butyl-6-hydroxy-1-[(1S)-1-(4-methoxyphenyl)ethyl]-5-[4-(3-methylpyridin-4-yl)benzenesulfonyl]-1,4-dihydropyrimidin-4-one] | 0.01 to 10 nM |
| CCCCc1nc(=O)c(S(=O)(=O)c2ccc(-c3ccc(F)nc3C)cc2)c(O)n1[C@H]1CCCc2ccccc21 [Example 237, 2-butyl-5-[4-(6-fluoro-2-methylpyridin-3-yl)benzenesulfonyl]-6-hydroxy-1-[(1S)-1,2,3,4-tetrahydronaphthalen-1-yl]-1,4-dihydropyrimidin-4-one] | 0.01 to 10 nM |
| CCCCc1nc(=O)c(S(=O)(=O)c2ccc(-c3ccc(F)nc3C)cc2)c(O)n1[C@@H](C)c1ccccc1OC [Example 240, 2-butyl-5-[4-(6-fluoro-2-methylpyridin-3-yl)benzenesulfonyl]-6-hydroxy-1-[(1S)-1-(2-methoxyphenyl)ethyl]-1,4-dihydropyrimidin-4-one] | 0.01 to 10 nM |
| CCCCc1nc(=O)c(S(=O)(=O)c2ccc(-c3ccnc(F)c3C)cc2)c(O)n1[C@H]1CCCc2ccccc21 [Example 243, 2-butyl-5-[4-(2-fluoro-3-methylpyridin-4-yl)benzenesulfonyl]-6-hydroxy-1-[(1S)-1,2,3,4-tetrahydronaphthalen-1-yl]-1,4-dihydropyrimidin-4-one] | 0.01 to 10 nM |
| CCCCc1nc(=O)c(S(=O)(=O)c2ccc(-c3ccnc(F)c3C)cc2)c(O)n1[C@@H](C)c1ccc(OC)cc1 [Example 244, 2-butyl-5-[4-(2-fluoro-3-methylpyridin-4-yl)benzenesulfonyl]-6-hydroxy-1-[(1S)-1-(4-methoxyphenyl)ethyl]-1,4-dihydropyrimidin-4-one] | 0.01 to 10 nM |
| CCCCc1nc(O)c(S(=O)(=O)c2ccc(Br)cc2)c(=O)n1[C@@H](C)c1ccc(OC)cc1 [Example 246, 5-(4-bromobenzenesulfonyl)-2-butyl-6-hydroxy-3-[(1S)-1-(4-methoxyphenyl)ethyl]-3,4-dihydropyrimidin-4-one] | 0.01 to 10 nM |
| CCCCCc1nc(=O)c(S(=O)(=O)c2ccc(Br)cc2)c(O)n1[C@@H](COC)c1ccccc1 [Example 247, 5-(4-bromobenzenesulfonyl)-6-hydroxy-3-[(1R)-2-methoxy-1-phenylethyl]-2-pentyl-3,4-dihydropyrimidin-4-one] | 10 to 100 nM |
| CCCCCc1nc(=O)c(S(=O)(=O)c2ccc(-c3cncc(F)c3)cc2)c(O)n1[C@@H](COC)c1ccccc1 [Example 248, 5-[4-(5-fluoropyridin-3-yl)benzenesulfonyl]-6-hydroxy-1-[(1R)-2-methoxy-1-phenylethyl]-2-pentyl-1,4-dihydropyrimidin-4-one] | 0.01 to 10 nM |
| CCCCCc1nc(=O)c(S(=O)(=O)c2ccc(-c3cccnc3C)cc2)c(O)n1[C@@H](COC)c1ccccc1 [Example 249, 6-hydroxy-1-[(1R)-2-methoxy-1-phenylethyl]-5-[4-(2-methylpyridin-3-yl)benzenesulfonyl]-2-pentyl-1,4-dihydropyrimidin-4-one] | 0.01 to 10 nM |
| CCCCCc1nc(=O)c(S(=O)(=O)c2ccc(-c3ccc(F)nc3C)cc2)c(O)n1[C@@H](COC)c1ccccc1 [Example 250, 5-[4-(6-fluoro-2-methylpyridin-3-yl)benzenesulfonyl]-6-hydroxy-1-[(1R)-2-methoxy-1-phenylethyl]-2-pentyl-1,4-dihydropyrimidin-4-one] | 0.01 to 10 nM |
| CCCCc1nc(=O)c(S(=O)(=O)c2ccc(-c3ccncc3C)cc2)c(O)n1[C@@H](COC)c1cccc(C#N)c1 [Example 251, 3-[(1R)-1-{2-butyl-6-hydroxy-5-[4-[3-methylpyridin-4-yl)benzenesulfonyl]-4-oxo-1,4-dihydropyrimidin-1-yl}-2-methoxyethyl] benzonitrile] | 0.01 to 10 nM |
| CCCCc1nc(=O)c(S(=O)(=O)c2ccc(-c3ccncc3C)cc2)c(O)n1[C@@H](CC)c1ccc2c(c1)OCO2 [Example 252, 1-[(1S)-1-(2H-1,3-benzodioxol-5-yl)propyl]-2-butyl-6-hydroxy-5-[4-(3-methylpyridin-4-yl)benzenesulfonyl]-1,4-dihydropyrimidin-4-one] | 0.01 to 10 nM |
| CCCCc1nc(=O)c(S(=O)(=O)c2ccc(-c3ccnc(F)c3C)cc2)c(O)n1[C@@H](COC)c1cccc(C#N)c1 [Example 253, 3-[(1R)-1-{2-butyl-5-[4-(2-fluoro-3-methylpyridin-4-yl)benzenesulfonyl]-6-hydroxy-4-oxo-1,4-dihydropyrimidin-1-yl}-2-methoxyethyl] benzonitrile] | 0.01 to 10 nM |
| CCCCc1nc(=O)c(S(=O)(=O)c2ccc(-c3cncc(F)c3)cc2)c(O)n1[C@H](CC)c1cccc2c1OCO2 [Example 255, 1-[(1R)-1-(2H-1,3-benzodioxol-4-yl)propyl]-2-butyl-5-[4-(5-fluoropyridin-3-yl)benzenesulfonyl]-6-hydroxy-1,4-dihydropyrimidin-4-one] | 0.01 to 10 nM |
| CCCCc1nc(=O)c(S(=O)(=O)c2ccc(-c3ccnc(F)c3C)cc2)c(O)n1[C@@H](CC)c1cccc2c1OCO2 [Example 257, 1-[(1S)-1-(2H-1,3-benzodioxol-4-yl)propyl]-2-butyl-5-[4-(2-fluoro-3-methylpyridin-4-yl)benzenesulfonyl]-6-hydroxy-1,4-dihydropyrimidin-4-one] | 0.01 to 10 nM |
| CCCCc1nc(=O)c(S(=O)(=O)c2ccc(-c3ccncc3C)cc2)c(O)n1[C@H](CC)c1cccc2c1OCO2 [Example 259, 1-[(1R)-1-(2H-1,3-benzodioxol-4-yl)propyl]-2-butyl-6-hydroxy-5-[4-(3-methylpyridin-4-yl)benzenesulfonyl]-1,4-dihydropyrimidin-4-one] | 0.01 to 10 nM |

Further lines, results first:

| EC50 | Compound |
| --- | --- |
| 0.01 to 10 nM | CCCCc1nc(=O)c(S(=O)(=O)c2ccc(-c3cncc(F)c3)cc2)c(O)n1[C@@H](C)c1ccccc1OC [Example 232, 2-butyl-5-[4-(5-fluoropyridin-3-yl)benzenesulfonyl]-6-hydroxy-1-[(1S)-1-(2-methoxyphenyl)ethyl]-1,4-dihydropyrimidin-4-one] |
| 0.01 to 10 nM | CCCCc1nc(=O)c(S(=O)(=O)c2ccc(-c3cccnc3C)cc2)c(O)n1[C@@H](CC)c1cccc(C#N)c1 [Example 234, 3-[(1S)-1-{2-butyl-6-hydroxy-5-[4-(2-methylpyridin-3-yl)benzenesulfonyl]-4-oxo-1,4-dihydropyrimidin-1-yl}propyl]benzonitrile] |
| 100 to 300 nM | CCCCc1nc(O)c(S(=O)(=O)c2ccc(Br)cc2)c(=O)n1[C@@H](C)c1ccccc1OC [Example 238, 5-(4-bromobenzenesulfonyl)-2-butyl-6-hydroxy-3-[(1S)-1-(2-methoxyphenyl)ethyl]-3,4-dihydropyrimidin-4-one] |
| 0.01 to 10 nM | CCCCc1nc(=O)c(S(=O)(=O)c2ccc(-c3ccnc(F)c3C)cc2)c(O)n1[C@@H](C)c1ccccc1OC [Example 239, 2-butyl-5-[4-(2-fluoro-3-methylpyridin-4-yl)benzenesulfonyl]-6-hydroxy-1-[(1S)-1-(2-methoxyphenyl)ethyl]-1,4-dihydropyrimidin-4-one] |
| 0.01 to 10 nM | CCCCc1nc(=O)c(S(=O)(=O)c2ccc(-c3cncc(F)c3)cc2)c(O)n1[C@@H](C)c1ccc(OC)cc1 [Example 241, 2-butyl-5-[4-(5-fluoropyridin-3-yl)benzenesulfonyl]-6-hydroxy-1-[(1S)-1-(4-methoxyphenyl)ethyl]-1,4-dihydropyrimidin-4-one] |
| 0.01 to 10 nM | CCCCCc1nc(=O)c(S(=O)(=O)c2ccc(-c3ccnc(F)c3C)cc2)c(O)n1[C@@H](COC)c1ccccc1 [Example 242, 5-[4-(2-fluoro-3-methylpyridin-4-yl)benzenesulfonyl]-6-hydroxy-1-[(1R)-2-methoxy-1-phenylethyl]-2-pentyl-1,4-dihydropyrimidin-4-one] |
| 0.01 to 10 nM | CCCCCc1nc(=O)c(S(=O)(=O)c2ccc(-c3ccncc3C)cc2)c(O)n1[C@@H](COC)c1ccccc1 [Example 245, 6-hydroxy-1-[(1R)-2-methoxy-1-phenylethyl]-5-[4-(3-methylpyridin-4-yl)benzenesulfonyl]-2-pentyl-1,4-dihydropyrimidin-4-one] |
| 10 to 100 nM | CCCCc1nc(O)c(S(=O)(=O)c2ccc(Br)cc2)c(=O)n1[C@H](CC)c1cccc2c1OCO2 [Example 254, 3-[(1R)-1-(2H-1,3-benzodioxol-4-yl)propyl]-5-(4-bromobenzenesulfonyl)-2-butyl-6-hydroxy-3,4-dihydropyrimidin-4-one] |
| 0.01 to 10 nM | CCCCc1nc(=O)c(S(=O)(=O)c2ccc(-c3ccncc3C)cc2)c(O)n1[C@@H](CC)c1cccc2c1OCO2 [Example 256, 1-[(1S)-1-(2H-1,3-benzodioxol-4-yl)propyl]-2-butyl-6-hydroxy-5-[4-(3-methylpyridin-4-yl)benzenesulfonyl]-1,4-dihydropyrimidin-4-one] |
| 0.01 to 10 nM | CCCCc1nc(=O)c(S(=O)(=O)c2ccc(-c3cncc(F)c3)cc2)c(O)n1[C@@H](CC)c1cccc2c1OCO2 [Example 258, 1-[(1S)-1-(2H-1,3-benzodioxol-4-yl)propyl]-2-butyl-5-[4-(5-fluoropyridin-3-yl)benzenesulfonyl]-6-hydroxy-1,4-dihydropyrimidin-4-one] |
